# Where “and” joins values, the source holds several entries; their conditions need not be identical. Equal values may be shown once. Read-outs that look alike come from different tables or passages of the source.
# Assay: PK characteristics in humans (plasma, LC/MS/MS)
# Assay type: in vivo, human
# Conditions: for accumulation: cancer patients; for dose dependence of Cmax and AUC: 10-400 mg QD and 400 mg BID; for half-life: read-out: T1/2 (converted)
# Procedure: A pharmaceutical formulation of the disclosure comprising the active ingredient N-(3-(2-(6-amino-4-(trifluoromethyl)pyridin-3-yl)-4-morpholinopyrido[3,2-d]pyrimidin-6-yl)-2-fluorophenyl)-3-fluoropropane-1-sulfonamide was evaluated for safety/tolerability and preliminary efficacy in eligible human subjects with advanced solid tumors, and the pharmacokinetic (PK) profile of the active ingredient was investigated for each subject. Eligibility criteria for inclusion in this study included:
# Fifteen eligible patients were enrolled in total daily dose levels ranging from 10-800 mg per day of the active ingredient, provided as 10-mg, 20-mg, 80-mg and 120-mg tablets for oral administration. Dose escalation is ongoing. All study medication supplies were provided by Asana BioSciences, LLC (Bridgewater, N.J.). The tablets were administered orally every 12-24 hours on an empty stomach (either 1 hour before or 2 hours after a meal or snack) with approximately 240 mL of water. On study days in which there was a single plasma PK sample taken, the subject was instructed to fast for at least 2 hours prior to collection of the PK sample. On study days with multiple plasma PK samples taken, the subject was instructed to fast overnight (at least 8 hours prior to study drug administration) and remain fasting for 2 hours after study drug administration. The date and time of the dose(s) taken prior to or on PK sampling days were collected by the study site or catalogued via a diary card provided to the subject.
# An ultra performance liquid chromatographic method was used for the determination of the active ingredient in human EDTA K2 plasma. This method was validated over an analytical range of 0.5 to 500 ng/mL. Calibration standards (CS) and quality control (QC) samples at three or four levels of concentrations were prepared fresh from the appropriate working solutions which were stored at −20° C. The human EDTA K2 plasma used for the preparation of CS and QC samples was obtained from Bioreclamation (Westbury, Pa., USA) and analyzed to determine possible interference with the analyte or the internal standard, and no significant interference was observed. The following parameters were used to determine analyte levels in the plasma samples: […]
# [1] = Day 1, 40 mg, individual subjects
# [2] = Day 1, 80 mg, individual subjects
# [3] = Day 1, 240 mg, individual subjects
# [4] = Day 1, 400 QD mg, individual subjects
# [5] = Day 1, 400 bid mg, individual subjects
# [6] = Day 15, 40 mg, individual subjects
# [7] = Day 15, 80 mg, individual subjects
# [8] = Day 15, 240 mg, individual subjects
# [9] = Day 15, 400 QD mg, individual subjects
# [10] = human subjects, listed as active ingredient
structure (smiles),measurement,setting,value
"Nc1cc(C(F)(F)F)c(-c2nc(N3CCOCC3)c3nc(-c4cccc(NS(=O)(=O)CCCF)c4F)ccc3n2)cn1 [CMPD A, N-(3-(2-(6-amino-4-(trifluoromethyl)pyridin-3-yl)-4-morpholinopyrido[3,2-d]pyrimidin-6-yl)-2-fluorophenyl)-3-fluoropropane-1-sulfonamide]",accumulation,BID administration,~3 fold
same,AUC0-24,[1],1400 ng·h/mL and 5510 ng·h/mL
same,Cmax,[1],96.2 ng/mL and 289 ng/mL
same,T1/2,[1],17.6 h
same,AUC0-24,[2],8090 ng·h/mL and 4010 ng·h/mL
same,Cmax,[2],300 ng/mL
same,Tmax,[2],24 h
same,AUC0-24,[3],9560 ng·h/mL and 4300 ng·h/mL
same,Cmax,[3],744 ng/mL and 295 ng/mL
same,T1/2,[3],23.9 h and 11.0 h
same,AUC0-24,[4],3200 ng·h/mL and 26700 ng·h/mL
same,Cmax,[4],264 ng/mL and 1870 ng/mL
same,T1/2,[4],15.6 h
same,AUC0-24,[5],20400 ng·h/mL
same,Cmax,[5],1430 ng/mL
same,T1/2,[5],15.0 h
same,RAUCtau,"Day 15, 10 mg, n=1",1.5
same,RCmax,"Day 15, 10 mg, n=1",1.3
same,RAUCtau,"Day 15, 20 mg, n=1",2.1
same,RCmax,"Day 15, 20 mg, n=1",1.5
same,AUC0-24,[6],2580 ng·h/mL and 9190 ng·h/mL
same,Cmax,[6],173 ng/mL and 523 ng/mL
same,RAUCtau,[6],1.9 and 2.3
same,RCmax,[6],"1.8, 1.8"
same,T1/2,[6],22.5 h and 47.8 h
same,AUC0-24,[7],21300 ng·h/mL
same,Cmax,[7],1179 ng/mL
same,RAUCtau,[7],2.4 and 5.3
same,RCmax,[7],2.0 and 4.0
same,Tmax,[7],24 h
same,RAUCtau,"Day 15, 120 mg, n=3, range",1.2-1.9
same,RCmax,"Day 15, 120 mg, n=3, range",0.8-2.4
same,AUC0-24,[8],26000 ng·h/mL and 3740 ng·h/mL
same,Cmax,[8],1610 ng/mL and 299 ng/mL
same,RAUCtau,[8],2.7 and 0.9
same,RCmax,[8],2.2 and 1.0
same,T1/2,[8],29.0 h and 10.3 h
same,Tmax,[8],"(2, 2) hr"
same,AUC0-24,[9],41300 ng·h/mL
same,Cmax,[9],2930 ng/mL
same,RAUCtau,[9],8.0 and 1.55
same,RCmax,[9],10.5 and 1.57
same,T1/2,[9],11.7 h
same,Tmax,[9],1 h
same,RAUCtau,"Day 15, 400 bid mg, n=1",3.76
same,RCmax,"Day 15, 400 bid mg, n=1",2.53
same,accumulation,QD administration,~2 fold
same,variability of pharmacokinetic parameters,human subjects,Moderate to high inter-and intra-subject variability
same,dose dependence of Cmax and AUC,human subjects,Dose-dependent Cmax and AUC
same,dose dependence of Cmax and AUC,[10],generally dose-dependent Cmax and AUC
same,accumulation in AUC at steady state,"human subjects, oral tablets",approximately 2 fold
same,t1/2 (rate of elimination),"human subjects, oral tablets",Moderate rate of elimination (t1/2 10-25 hours)
same,variability of pharmacokinetic parameters,[10],moderate inter-subject variability
same,AUC(0-t),"human, plasma, oral, 10 mg, Day 1, 10 mg, n=1, read-out: AUC0-24",622 ng·h/mL
same,Cmax,"human, plasma, oral, 10 mg, Day 1, 10 mg, n=1, read-out: Cmax",58 ng/mL
same,half-life,"human, plasma, oral, 10 mg, Day 1, 10 mg, n=1",16.1 h
same,Tmax,"human, plasma, oral, 10 mg, Day 1, 10 mg, n=1, read-out: Tmax",4 h
same,AUC(0-t),"human, plasma, oral, 10 mg, Day 15, 10 mg, n=1, read-out: AUC0-24",912 ng·h/mL
same,Cmax,"human, plasma, oral, 10 mg, Day 15, 10 mg, n=1, read-out: Cmax",74 ng/mL
same,Tmax,"human, plasma, oral, 10 mg, Day 15, 10 mg, n=1, read-out: Tmax",4 h
same,AUC(0-t),"human, plasma, oral, 10 mg, steady state, 10 QD mg, n=1, cancer patients, read-out: AUC0-24h",912 ng·h/mL
same,Cmax,"human, plasma, oral, 10 mg, steady state, 10 QD mg, n=1, cancer patients, read-out: Cmax",74 ng/mL
same,Tmax,"human, plasma, oral, 10 mg, steady state, 10 QD mg, n=1, cancer patients, read-out: Tmax",4 h
same,AUC(0-t),"human, plasma, oral, 20 mg, Day 1, 20 mg, n=1, read-out: AUC0-24",1480 ng·h/mL
same,Cmax,"human, plasma, oral, 20 mg, Day 1, 20 mg, n=1, read-out: Cmax",101 ng/mL
same,half-life,"human, plasma, oral, 20 mg, Day 1, 20 mg, n=1",13.7 h
same,Tmax,"human, plasma, oral, 20 mg, Day 1, 20 mg, n=1, read-out: Tmax",8 h
same,AUC(0-t),"human, plasma, oral, 20 mg, Day 15, 20 mg, n=1, read-out: AUC0-24",3160 ng·h/mL
same,Cmax,"human, plasma, oral, 20 mg, Day 15, 20 mg, n=1, read-out: Cmax",149 ng/mL
same,half-life,"human, plasma, oral, 20 mg, Day 15, 20 mg, n=1",127 h
same,Tmax,"human, plasma, oral, 20 mg, Day 15, 20 mg, n=1, read-out: Tmax",8 h
same,AUC(0-t),"human, plasma, oral, 20 mg, steady state, 20 QD mg, n=1, cancer patients, read-out: AUC0-24h",3160 ng·h/mL
same,Cmax,"human, plasma, oral, 20 mg, steady state, 20 QD mg, n=1, cancer patients, read-out: Cmax",149 ng/mL
same,Tmax,"human, plasma, oral, 20 mg, steady state, 20 QD mg, n=1, cancer patients, read-out: Tmax",8 h
same,half-life,"human, plasma, oral, 40 mg, Day 1, 40 mg, individual subjects",18.2 h
same,AUC(0-t),"human, plasma, oral, 40 mg, Day 1, 40 mg, n=2, mean, read-out: AUC0-24",2670 ng·h/mL
same,Cmax,"human, plasma, oral, 40 mg, Day 1, 40 mg, n=2, mean, read-out: Cmax",192 ng/mL
same,half-life,"human, plasma, oral, 40 mg, Day 1, 40 mg, n=2, mean",17.9 h
same,Tmax,"human, plasma, oral, 40 mg, Day 1, 40 mg, n=2, mean, read-out: Tmax",5 h
same,Tmax,"human, plasma, oral, 40 mg, Day 15, 40 mg, individual subjects, read-out: Tmax",4 h
same,AUC(0-t),"human, plasma, oral, 40 mg, Day 15, 40 mg, n=2, mean, read-out: AUC0-24",5890 ng·h/mL

# Reference: patent publication US10695296B2, “Formulations, methods, kit, and dosage forms for improved stability of an active pharmaceutical ingredient” (Asana BioSciences, LLC, priority 2017, dated 2020)
